Results on one compound are retold here after patent publication US8273852B2, “Medium chain length polyhydroxyalkanoate polymer and method of making same” (Queen's University at Kingston, priority 2009, dated 2012).

For experiment [1], the system named is β-oxidation pathway. The experiment can be described thus: Continuous fermentation, cofeeding of nonanoic acid and glucose, increasing acrylic acid. Conditions: inhibitor concentration increased from 0 to 0.15 g/L; value at highest concentration. The experiment is classed as cell-based, Pseudomonas putida KT2440. The method, then:
(§1) Continuous fermentations were carried out in a 1.5 L stirred tank bioreactor (Bioflo IIc, New Brunswick Scientific, N.J., USA) with a working volume of 1.1 L. The fermentor was operated at 28.5±1° C. and the pH was automatically controlled at 6.85±0.05 using 2 N potassium hydroxide solution. The dissolved oxygen was monitored with an Ingold polarographic probe (available from Mettler-Toledo Ingold Inc., Bedford, Mass., USA) and maintained no lower than 30% air saturation with an aeration rate of 0.8 vvm (void volumes per minute) and an agitation speed up to 900 rpm. Nonanoic acid was fed separately at controlled speed by a peristaltic nutrient pump on the bioreactor. All other aqueous medium was mixed and fed together. The dilution rate of all continuous fermentations was controlled at […] by fixing the working volume and a constant aqueous medium feeding rate.
During shake flask, batch, fed-batch, or continuous cultivations, fermentation broth samples were taken. Known amounts of such broths were centrifuged to obtain the medium's supernatant and concentrated biomass. […]
(§2) Dried samples were weighed to obtain dry biomass amounts. PHA content and composition were determined by gas chromatographic method as described below (Sun, Z., et al. (2007). Appl. Microbiol. Biotechnol., 74:69). […]

Experiment [2] deals with β-oxidation pathway. In words: Continuous fermentation, cofeeding of dodecanoic acid and glucose, increasing acrylic acid. The experiment is classed as cell-based, Pseudomonas putida KT2440. The protocol:
as §1, with “Nonanoic acid was fed separately at controlled speed by a peristaltic nutrient pump on the bioreactor.” left out
During shake flask, batch, fed-batch, or continuous cultivations, fermentation broth samples were taken. Known amounts of such broths were centrifuged to obtain the medium's supernatant and concentrated biomass. The biomasses were washed with distilled water, centrifuged again, re-suspended, frozen, and lyophilized to obtain dried biomass. The supernatant was used to analyze carbon source, inhibitor, and nutrient concentration. The dried biomass was used to obtain the cell concentration, cellular PHA content and composition.
as §2
(§3) Known amount of dried biomass, or purified MCL-PHA, or MCL-PHA standard with known composition and elution time of each of its components, were reacted in 2 mL chloroform plus 1 mL methanol containing 15% (v/v) concentrated sulfuric acid as acidifying agent and 0.2% (w/v) benzoic acid as internal standard, at 100° C. for 4 hours. […] Methyl-3-hydroxyalkanoate was identified and its molar amount was calculated by comparing peak area to the corresponding peak of known methyl-3-hydroxyalkanoate generated from known MCL-PHA standard, which was characterized by NMR and GC/MS. […]

Experiment [3] concerns Pseudomonas putida KT2440. In words: Shake flask growth with acrylic acid, absorbance at 650 nm. It counts as cell-based. The following applies: shake flasks. The method, then:
A basic glucose-only shake flask medium was a 100 mL liquid medium in a 500 mL Erlenmeyer flask. The medium comprised (g L^−1): (NH4)2SO4 (4.70), MgSO4.7H2O (0.80), Na2HPO4.7H2O (12.0), KH2PO4 (2.70), glucose (9.0), nutrient broth (1.0).
The effect of acrylic acid on cell growth was determined using Pseudomonas putida KT2440 (ATCC 47054). Pseudonomas putida KT2440 (ATCC 47054) was maintained on nutrient agar plates at 4° C. before inoculation. The toxicity of a β-oxidation inhibitor, acrylic acid, to the growth of Pseudomonas putida KT2440 was determined by shake flask experiment. The cultivation conditions were 28° C. in a New Brunswick Shaker-Incubator at 200 rpm. The medium used was the basic glucose-only shake flask medium described above, plus appropriate amount of acrylic acid.
500 mL Erlenmeyer flasks were used with each containing 100 mL of medium. In addition to the basic medium described above, increasing concentrations of acrylic acid (AA) at 0, 0.2, 0.4, 0.8, 2.0 g/L were prepared in each flask. The first set of such flasks was cultured for 12 h and the second set of such flasks was cultured for 24 h. After the specified culturing time, a sample was taken to measure the absorbance at 650 nm in the spectrophotometer.

For experiment [4], the system named is β-oxidation pathway. The experiment can be described thus: Continuous fermentation, cofeeding of octanoic acid and glucose, increasing acrylic acid. The experiment is classed as cell-based, Pseudomonas putida KT2440. The following applies: inflow acrylic acid 0.2 g/L. The protocol: as §1, with “Nonanoic acid was fed separately at controlled speed by a peristaltic nutrient pump on the bioreactor.” left out
During shake flask, batch, fed-batch, or continuous cultivations, fermentation broth samples were taken. Known amounts of such broths were centrifuged to obtain the medium's supernatant and concentrated biomass. The biomasses were washed with distilled water, centrifuged again, re-suspended, frozen, and lyophilized to obtain dried biomass. […]
as §2

The subject of experiment [5] is β-oxidation pathway. The experiment can be described thus: Continuous fermentation, nonanoic acid as sole carbon source, increasing acrylic acid. It counts as cell-based, Pseudomonas putida KT2440. The protocol: as §1
During shake flask, batch, fed-batch, or continuous cultivations, fermentation broth samples were taken. Known amounts of such broths were centrifuged to obtain the medium's supernatant and concentrated biomass. The biomasses were washed with distilled water, centrifuged again, re-suspended, frozen, and lyophilized to obtain dried biomass. The supernatant was used to analyze carbon source, inhibitor, and nutrient concentration. […]
as §2, §3

Experiment [6] relates to β-oxidation pathway. In words: Fed-batch fermentation, cofeeding of nonanoic acid, glucose and acrylic acid. It counts as cell-based, Pseudomonas putida KT2440. The following applies: nonanoic acid:glucose:acrylic acid 1.25:1:0.03 (w/w/w); by GC; throughout 32 hours fermentation. The method, then: Fed-batch fermentations were conducted in a 5 L stirred tank bioreactor with 3 L working volume (Minifors, INFORS HT, Bottmingen, Switzerland). The specific growth rate was controlled at 0.25 h^−1 or 0.15 h^−1 by exponentially feeding the carbon sources as growth-limiting nutrients. β-oxidation inhibitor was added with the glucose feeding solution at a fixed mass as specified in the related examples. […]
as §2, §3

Take `C=CC(=O)O` [acrylic acid]: in the experiment with β-oxidation pathway [1], the “intracellular PHN content” value is given as about 64% and the “mole percentage of C9” value is recorded as 96 mol %. The “mole percentage of C12” value with β-oxidation pathway [2] (inflow acrylic acid 0.2 g/L (FIG. 10B)) came to 60 mol %. Also, in the experiment with β-oxidation pathway [2] (inlet acrylic acid 0.1 g L^−1), the “molar C12 content” value stood at 34.5%. Further, the “molar C12 content” value in the experiment with β-oxidation pathway [2] (inlet acrylic acid 0.2 g L^−1) is reported as 59%. Moreover, in experiment [3] (acrylic acid 0.2 g L^−1, 12 h and 24 h cultures, glucose medium), the “reduction of Absorbance at λ=650 nm” value was “two fold”. In experiment [3] (acrylic acid greater than 0.4 g L^−1), the cell growth entry is recorded as “either weak growth or no growth”. Also, in the experiment on β-oxidation pathway [4], the “mole percentage of C8” value is listed as 98 mol %. In addition, the PHA content entry in the experiment with β-oxidation pathway [5] (acrylic acid 0.2 g L^−1, nonanoic acid only carbon source) was “very little PHA content”. Further, the “molar C9 fraction of the PHA produced” value with β-oxidation pathway [5] (at increased inhibitor concentration, nonanoic acid only, maximum reached) is recorded as “about 90%”. In the experiment on β-oxidation pathway [5] (inflow concentration, nonanoic acid only, steady state), the “acrylic acid concentration that affected monomeric composition” value is recorded as 0.02 g/L. For the same compound, the “monomeric composition, C9 (3-OH-nonanoate)” value in the experiment on β-oxidation pathway [6] was determined as 87.8±0.8 mol %.
